Source: PMC8469897, “Transcriptomic Characterization of Odorant Binding Proteins in Cacia cretifera thibetana and Their Association with Different Host Emitted Volatiles” (Insects, 2021)

How the values were obtained:
CcreOBP6 = assay: Fluorescence competitive binding assay with 1-NPN probe, CcreOBP6; design: species or system Cacia cretifera thibetana
Protocol: (§1) The binding affinities of both CcreOBP6 and CcreOBP10 proteins with 20 odor volatiles were determined. The CcreOBP6 and CcreOBP10 proteins from prokaryotic cells were purified by Ni affinity chromatography. Then, 50 mM Tris-HCL buffer solution (pH = 7.4) was prepared, and N-phenyl-1-naphthylamine (1-NPN) was used as a fluorescent probe. For chromatography, the methanol was used as a solvent for fluorescent probe 1-NPN as well as for 20 odor standard volatile samples dissolved in solvent to make a 1 mM solution. These samples were added to a 96 Micro Well TM microtiter plate (NunclonTM) while the multifunctional microplate reader (VARIOSKAN FLASH) excitation light wavelength was set to 337 nm. The scanning wavelength was between 370 to 550 nm, and both excitation and emission slits were set to 5 nm. To determine the CcreOBP6 and CcreOBP10 protein binding constant with the fluorescent probe 1-NPN, a solution was prepared with CcreOBP6 and CcreOBP10 proteins in Tris-HCL (pH = 7.4) buffer with a 2 μM final concentration. The successive concentrations of 2, 4, 6, 8, 12, 16, and 20 μM of 1-NPN were added, and the fluorescence intensity was recorded at the maximum emission wavelength (Em = 410 nm) for each time, and the experiment was repeated three times. The formula for the protein and odor standard dissociation constant was calculated by: Ki = [IC 50]/(1 + [1-NPN]/K 1-NPN) where IC 50 denotes the odor standard concentrations as the fluorescence intensity value was decreased by half, [1-NPN] is the unbound 1-NPN prob concentration, and K 1-NPN is the protein and 1-NPN probe binding constant.

CcreOBP10 = assay: Fluorescence competitive binding assay with 1-NPN probe, CcreOBP10; design: species or system Cacia cretifera thibetana
Protocol: as §1

males and females = system: males and females; design: method as in PMID 23564737; conditions: olfactometer, lower dose; cited from earlier work
[1] = competitive displacement of 1-NPN
[2] = 2 μM protein, Tris-HCl pH 7.4, Em 410 nm, read-out: dissociation constant with fluorescent probe 1-NPN
[3] = Ki = [IC50]/(1 + [1-NPN]/K1-NPN)
[4] = odor concentration at which 1-NPN fluorescence intensity is halved

| Molecule | binding with CcreOBP6 (CcreOBP6; [1]) | relative fluorescence value (CcreOBP10; [1]) | binding with CcreOBP10 (CcreOBP10; [1]) | also measured |
| --- | --- | --- | --- | --- |
| C1=CCCCC=CCCC1 [1,6-cyclodecadiene] | did not show any binding |  |  |  |
| c1ccc(Nc2cccc3ccccc23)cc1 [1-NPN, N-phenyl-1-naphthylamine, reference compound] |  |  |  | Kd (CcreOBP6; [2]): 7.09 µM; Kd (CcreOBP10; [2]): 6.18 µM |
| C=C1CC/C=C(\C)CC[C@@H]2[C@@H]1CC2(C)C [1-caryophyllene] |  | below 50% |  |  |
| CC(C)COC(=O)c1ccccc1C(=O)OCC(C)C [di-isobutyl phthalate] |  |  |  | drop in the relative fluorescence value (CcreOBP10; [1]): 6.4% |
| CC12CCC(CC1)C(C)(C)O2 [eucalyptol] |  |  |  | relative fluorescence value (CcreOBP6; [1]): 10.84% |
| CCC/C=C/C=O [trans-2-hexenal] | strong binding affinities | below 50% | strong binding affinities | Ki (CcreOBP6; [3]): 12.9 µM; IC50 (CcreOBP6; [4]): 16.2 µM; repellent activity (males and females): good repellent activity |
| phytol | did not show any binding |  | showed binding |  |

Now from value to molecule, other results behind:

| binding with CcreOBP6 (CcreOBP6; [1]) | relative fluorescence value (CcreOBP10; [1]) | Molecule | binding with CcreOBP10 (CcreOBP10; [1]) | also measured |
| --- | --- | --- | --- | --- |
|  | below 50% | C=CC(=C)CCC=C(C)C [Myrcene] |  | Ki (CcreOBP10; [3]): 13.8 µM; IC50 (CcreOBP10; [4]): 17.9 µM |
| did not show any binding |  | C=C1CC[C@H]2O[C@]2(C)CC[C@@H]2[C@@H]1CC2(C)C [caryophyllene oxide] |  |  |
| did not show any binding |  | CCCCCC=O [n-hexanal] | showed binding |  |
